# Laboratory results as given in patent US20080107679A1, “Skin care compositions including hexapeptide complexes and methods of their manufacture” (priority 2003, published 2008).
# Key:
# skin = assay: Clinical evaluations of the hexapeptide complex: moisture content; format: in vivo; conditions: after 15 minutes of use
# Excerpt: (§1) The combination of ingredients of the skin care compositions of the present invention are believed to provide synergistic benefits which are otherwise not available with any one of the components used by itself. Clinical evaluations based on the use of the hexapeptide complex itself evidenced a reduction in fine lines and wrinkles, including laugh lines, frown lines, and smile lines, by approximately 13% after 2 weeks and approximately 33% in 4 weeks of use. It was further observed that 100% of participants experienced a reduction in under-eye fine lines and wrinkles on the average of approximately 16% after 4 weeks and approximately 52% after 8 weeks of use. Additionally, an increase in moisture content by 37% after 15 minutes of use was observed.
# fine lines and wrinkles = assay: Clinical evaluations of the hexapeptide complex: fine lines and wrinkles; format: in vivo
# Excerpt: as §1
substance,measurement,setting,value
acetyl hexapeptide-3 [hexapeptide complex],increase in moisture content,skin,37%
same,"reduction in fine lines and wrinkles, including laugh lines, frown lines, and smile lines",fine lines and wrinkles; after 2 weeks,approximately 13%
same,average reduction in under-eye fine lines and wrinkles,fine lines and wrinkles; after 4 weeks,approximately 16%
same,average reduction in under-eye fine lines and wrinkles,fine lines and wrinkles; after 8 weeks of use,approximately 52%
same,"reduction in fine lines and wrinkles, including laugh lines, frown lines, and smile lines",fine lines and wrinkles; in 4 weeks of use,approximately 33%
same,participants who experienced a reduction in under-eye fine lines and wrinkles,fine lines and wrinkles; in vivo,100%
